Source: PMC11243177, “The Discovery, Molecular Cloning, and Characterization of Dextransucrase LmDexA and Its Active Truncated Mutant from Leuconostoc mesenteroides NN710” (Molecules, 2024)

Molecular target: T1, ΔN190LmDexA (Leuconostoc mesenteroides, UniProt Q03VD8)
T1 construct: gene LEUM_1747; N-terminal 190 residues removed (signal peptide and variable region); 1372 aa, theoretical 150 kDa; borders 191-1562 derived from printed lengths
Experiment: DNS assay of released reducing sugar (fructose), Michaelis-Menten fit
Assay type: biochemical
Conditions: pH 5.6, 30 °C, 20 mM sodium acetate, 3-300 mM sucrose, 30 min

T1 sequence (Q03VD8 entry or part of it, stated change not applied): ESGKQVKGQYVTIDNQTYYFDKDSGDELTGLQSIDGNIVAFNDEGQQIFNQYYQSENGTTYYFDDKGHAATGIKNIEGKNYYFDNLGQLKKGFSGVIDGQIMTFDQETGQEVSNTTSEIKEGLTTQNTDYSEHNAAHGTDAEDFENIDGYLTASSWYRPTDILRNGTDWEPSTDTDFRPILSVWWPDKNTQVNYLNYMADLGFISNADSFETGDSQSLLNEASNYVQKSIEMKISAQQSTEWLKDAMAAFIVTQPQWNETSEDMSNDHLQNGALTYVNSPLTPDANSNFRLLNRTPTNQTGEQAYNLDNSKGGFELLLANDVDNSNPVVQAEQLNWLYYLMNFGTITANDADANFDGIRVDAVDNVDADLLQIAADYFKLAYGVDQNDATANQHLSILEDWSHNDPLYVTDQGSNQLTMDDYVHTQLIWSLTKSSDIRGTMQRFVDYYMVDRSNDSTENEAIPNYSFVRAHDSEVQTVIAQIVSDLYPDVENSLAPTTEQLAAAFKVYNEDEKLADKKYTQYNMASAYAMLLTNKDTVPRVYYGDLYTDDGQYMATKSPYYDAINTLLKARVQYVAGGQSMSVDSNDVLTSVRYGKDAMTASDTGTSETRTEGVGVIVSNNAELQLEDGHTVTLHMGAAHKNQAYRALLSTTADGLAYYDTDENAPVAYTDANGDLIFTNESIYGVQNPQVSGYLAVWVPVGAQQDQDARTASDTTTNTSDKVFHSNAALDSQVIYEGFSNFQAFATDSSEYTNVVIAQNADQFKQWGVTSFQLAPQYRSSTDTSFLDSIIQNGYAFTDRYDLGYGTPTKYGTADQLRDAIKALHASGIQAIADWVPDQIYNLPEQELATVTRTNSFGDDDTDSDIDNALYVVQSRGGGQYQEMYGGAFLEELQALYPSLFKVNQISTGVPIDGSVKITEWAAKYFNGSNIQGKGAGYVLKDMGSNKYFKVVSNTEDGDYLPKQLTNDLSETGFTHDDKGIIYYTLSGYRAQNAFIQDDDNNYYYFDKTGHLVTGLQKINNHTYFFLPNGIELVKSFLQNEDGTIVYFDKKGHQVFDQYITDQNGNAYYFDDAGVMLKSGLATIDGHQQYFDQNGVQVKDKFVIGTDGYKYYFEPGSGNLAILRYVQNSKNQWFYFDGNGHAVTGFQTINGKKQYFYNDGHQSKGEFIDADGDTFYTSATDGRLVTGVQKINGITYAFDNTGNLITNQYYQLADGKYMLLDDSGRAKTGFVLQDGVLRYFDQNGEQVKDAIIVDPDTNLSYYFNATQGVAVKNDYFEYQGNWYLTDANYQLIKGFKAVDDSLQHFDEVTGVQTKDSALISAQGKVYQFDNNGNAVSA

For `OC[C@H]1O[C@@](CO)(O[C@H]2O[C@H](CO)[C@@H](O)[C@H](O)[C@H]2O)[C@@H](O)[C@@H]1O` [sucrose], the Km was 13.7 mM.
